Consider eleven molecules from article PMC7143578, “Terpenoids from the Deep-Sea-Derived Fungus Penicillium thomii YPGA3 and Their Bioactivities” (Marine Drugs, 2020).

Where only a bound is given, the exact number is not on record here.

Series [1] in a line: Cytotoxicity toward MCF-7 breast carcinoma cells. The class given is cell-based. On the set-up: concentration or dose not given beside the values. Particulars: human, read-out: cytotoxicity (%) toward MCF-7 (cell viability).
The subject of another series is RAW 264.7 cells. The series can be described thus: MTT cell viability of RAW 264.7 macrophages. The class given is cell-based. Particulars: MTT assay, 50 μM. The method, then:
(§1) The isolated compounds were also evaluated for their inhibitory effects against NO production in LPS-activated RAW 264.7 macrophages at the concentration of 50 μM following the same procedures in our previous study. The cell viability was further determined by the MTT assay to evaluate whether the inhibition on NO production was owing to the cytotoxicity.
On the technique in general: Formazan colour is commonly taken as a measure of viable cells.

Series [2] in a line: MTT cell viability of RAW 264.7 macrophages. As to conditions: mouse, LPS-activated RAW 264.7 macrophages, MTT assay, read-out: cytotoxicity (%) toward RAW 264.7 (cell viability). The series is classed as cell-based. The method, then:
as §1

Series [3] in a line: Cytotoxicity toward MDA-MB-468 breast carcinoma cells. Particulars: human, MDA-MB-468 breast carcinoma cells; read-out: cytotoxicity (%) toward MDA-MB-468 (cell viability). Set-up: viability: concentration or dose not given beside the values. The series is classed as cell-based, human.
The subject of series [4] is α-glucosidase from Saccharomyces cerevisiae. Nature of the series: α-glucosidase inhibition assay (PNPG substrate). The series is classed as biochemical. Particulars: for inhibition of α-glucosidase: initial concentration of 1 mM; for IC50: three replicates, read-out: IC50 against α-glucosidase. On the procedure:
The α-glucosidase inhibitory effect was assessed as follows. First, 0.2 U of α-glucosidase from Saccharomyces cerevisiae was purchased from Sigma-Aldrich (St. Louis, MO, USA), and was diluted in a 0.067 M phosphate buffer consisting of Na2HPO4·12H2O and KH2PO4 (pH 6.8). The assay was conducted in a 60 μL reaction system containing 20 μL of diluted enzyme solution, and 20μL of dimethyl sulfoxide (DMSO) or sample (dissolved in DMSO). […] The plate was incubated for an additional 20 min at 37 °C, and the reaction was quenched by adding 60 μL of 0.2 M Na2CO3. The final concentrations of tested compounds were between 0.2 and 2 mM. The optical density (OD) was measured at an absorbance wavelength of 405 nm using a Microplate Reader (Tecan, Mannedorf, Switzerland).

Series [5] has as its system NO production in LPS-activated RAW 264.7 macrophages. The series can be described thus: Inhibition of NO production in LPS-activated RAW 264.7 macrophages. The class given is cell-based. Particulars: Mus musculus, RAW264.7, 50 μM, read-out: Inhibitions (%) on NO production. The method, then: as §1
Another series has as its system MDA-MB-468 cells. Nature of the series: Cytotoxicity toward MDA-MB-468 breast carcinoma cells. The class given is cell-based, human. Set-up: viability: concentration or dose not given beside the values. Particulars: Homo sapiens, MDA-MB-468.

For the molecule `C=C1CCC2C(C)(CCC(OC(C)=O)C2(C)C(=O)O)C1CCC(C)=CC(=O)O` (stereo not drawn) [Compound 10, 3β-acetoxy-agathic acid], the viability – broadly, a read-out of living cells in per cent, often relative to untreated cells – was determined as 90% in series [1] and 94.5% in series [3]. Besides, the “cytotoxicity (%) toward RAW 264.7 (cell viability)” value in the series on RAW 264.7 cells is recorded as “obvious cytotoxic effects”. Also, the viability at 50 µM in series [2] was 58.4%. Also, the “inhibition of α-glucosidase” value in series [4] is given as “low inhibition”.
With `COC(=O)CC[C@]1(C)[C@H]2Cc3c(c(C)c4c(c3OC)C(=O)OC4)O[C@@]2(C)C[C@@H](O)[C@H]1C(C)(C)O` [Compound 3, austalide H], the viability stood at 84.7% in series [1] and 87.2% in series [3]. In addition, in series [2], the viability at 50 µM came to 60.9%. In addition, the inhibition at 50 µM in series [5] is -9.91%.
With `COC(=O)CC[C@]1(C)[C@H]2Cc3c(c(C)c4c(c3OC)C(=O)OC4)O[C@@]2(C)CC[C@H]1C(C)(C)O` [Compound 2, austalide P], the viability in series [1] stood at 117%. In addition, the “cytotoxicity (%) toward RAW 264.7 (cell viability)” value in the series with RAW 264.7 cells is on record as “obvious cytotoxic effects”. Further, the viability at 50 µM in series [2] was 46.2%. For the same molecule, in series [5], the inhibition at 50 µM was more than 50%. In addition, the viability in series [3] is 78.2%. For the same molecule, in series [4], the “inhibition of α-glucosidase” value is “more than 50%” and the IC50 (as a rule, the point on the concentration scale where inhibition reaches its midpoint) came to 910 ± 4 µM.
As to `C=C(C)[C@@H]1[C@H](O)C[C@]2(C)Oc3c(C)c4c(c(OC)c3C[C@@H]2[C@@]1(C)CCC(=O)O)C(=O)OC4` [Compound 7, austalide Q acid], the viability in series [1] worked out at 74.8%; in series [3], 91.1%. In addition, in series [2], the viability at 50 µM is 80.8%. The inhibition at 50 µM in series [5] is -3.08%.
For the molecule `C=C1CC[C@@H]2[C@](C)(CCC[C@]2(C)C(=O)O)[C@H]1CC/C(C)=C/C(=O)O` [Compound 11, agathic acid], the viability in series [1] amounted to 83.5%; in series [3], 89.3%. Besides, the viability at 50 µM in series [2] is 89.9%. Moreover, in series [5], the inhibition at 50 µM is 4.85%. The “inhibition of α-glucosidase” value in series [4] is “more than 50%”. Further, the concentration for half-maximal inhibition (IC50) in series [4] stood at 525 ± 2 µM.
In the case of `C=C(C)[C@@H]1CC[C@]2(C)Oc3c(C)c4c(c(OC)c3C[C@@H]2[C@@]1(C)CCC(=O)O)C(=O)OC4` [Compound 8, 13-deoxyaustalide Q acid], the viability in series [1] was 76.3%; in series [3] it was 79.3%. In series [2], the viability at 50 µM was determined as 53.5%. Also, the inhibition at 50 µM in series [5] was found to be 24%.
With `COC(=O)CCC1(C)C(C(C)(C)O)CCC2(C)Oc3c(C)c4c(c(O)c3CC21)C(=O)OC4` (stereo not shown) [Compound 1, austalide Y], the viability stood at 104% in series [1] and 31.6% in series [3]. For the same molecule, the “cytotoxicity (%) toward RAW 264.7 (cell viability)” value in the series with RAW 264.7 cells was “obvious cytotoxic effects”. For the same molecule, the viability at 50 µM in series [2] was determined as 33.1%. Besides, the IC50 in the series with MDA-MB-468 cells is 38.9 ± 1.83 µM.
In the case of `C=C1CCC2C(C)(CCC(O)C2(C)C(=O)O)C1CCC(C)=CC(=O)O` (stereo not drawn) [Compound 9, 3β-hydroxy-agathic acid], the viability in series [1] is 88.8%; in series [3] it was 92.1%. Moreover, the viability at 50 µM in series [2] was found to be 83.3%. In series [5], the inhibition at 50 µM was determined as 7.81%. Also, the “inhibition of α-glucosidase” value in series [4] is on record as “low inhibition”.
On to `COc1c2c(c(C)c3c1C(=O)OC3)O[C@@]1(C)CC[C@@H](C(C)(C)O)[C@](C)(CCC(=O)O)[C@H]1C2` [Compound 4, austalide P acid], for which the viability was determined as 82.4% in series [1] and 92.6% in series [3]. The viability at 50 µM in series [2] is 97.4%. Also, in series [5], the inhibition at 50 µM was 5.29%.
Taken in the same sequence, the figures for `COc1c2c(c(C)c3c1C(=O)OC3)O[C@@]1(C)C[C@@H](O)[C@@H](C(C)(C)O)[C@](C)(CCC(=O)O)[C@H]1C2` [Compound 5, austalide H acid] were 69.1%, 87.3%, 104% and 12.1%.
In the same order, the values of `COc1c2c(c(C)c3c1C(=O)OC3)OC1(C)CC(O)C34OC(O)(CCC3(C)C1C2)OC4(C)C` (stereo not shown) [Compound 6, 17-O-demethylaustalide B] are 73.8%, 92.3%, 74.6% and -3.74%.
